Measured values: US20060140858A1, “Drug pre-targeting by means of bi-specific antibodies and hapten constructs comprising a carrier peptide and the active agent(s)” (Immunomedics, Inc., priority 2002, published 2006)
Read-outs that look alike come from different tables or passages of the source. *1 amine or outer side, *2 acyl side, *3 side chain or, on linkers, in order; H or OH if unused. Where a SMILES comes first, the peptide text is derived from it. Side-chain parts run from the residue outwards. The star is where a group is joined. DOTA = O=C(O)CN1CCN(CC(=O)O)CCN(CC(=O)*)CCN(CC(=O)O)CC1; DTPA = O=C(O)CN(CCN(CC(=O)O)CC(=O)O)CCN(CC(=O)O)CC(=O)*; NH(2-(imidazol-4-yl)ethyl) = c1ncc(CCN*)[nH]1; Suc = O=C(CCC(=O)[*:2])[*:1]; X1 = NC(=S)NN=CC(=O)*

Columns and labels:
[1] = Control group: 99m-Tc-IMP-192 alone; type: in vivo, nude mice; conditions: female, nude (Taconic NCRNU), mouse, total radioactivity
[2] = Clearance of 99m-Tc-IMP-192 in BALB/c mice; type: in vivo
[3] = Pretargeting: 125-I-hMN-14 × 734 bsAb, 24 h later 99m-Tc-IMP-192, biodistribution; type: in vivo, Nude mice; conditions: female, mouse, total radioactivity; for tissue uptake at 0.5 h: 30 min post peptide; for tissue uptake at 1 h: 1 h post peptide; for tissue uptake at 3 h: 3 h post peptide; for tissue uptake at 24 h: 24 h post peptide
[4] = type: in vitro ADME, mouse
Source text: The peptide was monitored as described above by HPLC.

[5] = Cys Challenge 1 mM in 0.05 M phosphate pH 7.5 Room Temp., 1 hr
[6] = Saline Dilution Room Temp., 19 hr
[7] = Saline Dilution Room Temp., […]

CC(=O)N[C@@H](CCCCNC(=O)CN(CCN(CCN(CC(=O)O)CC(=O)O)CC(=O)O)CC(=O)O)C(=O)N[C@@H](Cc1ccc(O)cc1)C(=O)N[C@@H](CCCCNC(=O)CN(CCN(CCN(CC(=O)O)CC(=O)O)CC(=O)O)CC(=O)O)C(=O)N[C@@H](CCCCNC(=O)[C@H](CS)NC(=O)C=NNC(N)=S)C(N)=O [IMP 192, Ac-Lys(DTPA)-Tyr-Lys(DTPA)-Lys(Tscg-Cys)-NH2] (Ac-K(DTPA)YK(DTPA)K([Cys-X1])-NH2)
tissue uptake at 3 h ([1]; Kidney): 2.6 ± 0.9 %ID/g | tissue uptake at 3 h ([1]; Liver): 0.3 ± 0.07 %ID/g | tissue uptake at 3 h ([1]; Spleen): 0.1 ± 0.05 %ID/g | tissue uptake at 2 h ([2]; BALB/c, mouse, large intestine, total radioactivity, Lg.Int., 2 h): 1.53 ± 0.45 %ID/g | tissue uptake at 4 h ([2]; BALB/c, mouse, large intestine, total radioactivity, Lg.Int., 4 h): 1.58 ± 0.7 %ID/g | tissue uptake at 24 h ([2]; BALB/c, mouse, large intestine, total radioactivity, Lg.Int., 24 h): 0.15 ± 0.14 %ID/g | tissue uptake at 1 h ([2]; BALB/c, mouse, small intestine, total radioactivity, Small int, 1 h): 1.37 ± 0.75 %ID/g | tissue uptake at 2 h ([2]; BALB/c, mouse, small intestine, total radioactivity, Small int, 2 h): 0.6 ± 0.06 %ID/g | tissue uptake at 4 h ([2]; BALB/c, mouse, small intestine, total radioactivity, Small int, 4 h): 0.21 ± 0.09 %ID/g | tissue uptake at 24 h ([2]; BALB/c, mouse, small intestine, total radioactivity, Small int, 24 h): 0.03 ± 0.01 %ID/g | tissue uptake at 1 h ([2]; BALB/c, mouse, total radioactivity, Blood, 1 h): 0.3 ± 0.09 %ID/g | tissue uptake at 2 h ([2]; BALB/c, mouse, total radioactivity, Blood, 2 h): 0.21 ± 0.03 %ID/g | tissue uptake at 4 h ([2]; BALB/c, mouse, total radioactivity, Blood, 4 h): 0.14 ± 0.04 %ID/g | tissue uptake at 24 h ([2]; BALB/c, mouse, total radioactivity, Blood, 24 h): 0.05 ± 0.01 %ID/g | tissue uptake at 1 h ([2]; BALB/c, mouse, total radioactivity, Liver, 1 h): 0.27 ± 0.18 %ID/g | tissue uptake at 2 h ([2]; BALB/c, mouse, total radioactivity, Liver, 2 h): 0.22 ± 0.16 %ID/g | tissue uptake at 1 h ([2]; BALB/c, mouse, total radioactivity, Muscle, 1 h): 0.1 ± 0.06 %ID/g | tissue uptake at 2 h ([2]; BALB/c, mouse, total radioactivity, Muscle, 2 h): 0.05 %ID/g | tissue uptake at 4 h ([2]; BALB/c, mouse, total radioactivity, Muscle, 4 h): 0.03 ± 0.01 %ID/g | tissue uptake at 4 h ([2]; BALB/c, mouse, total radioactivity, Stomach, 4 h): 0.27 ± 0.33 %ID/g | tissue uptake at 24 h ([2]; BALB/c, mouse, total radioactivity, Stomach, 24 h): 0.02 ± 0.01 %ID/g | excreta dose per gram or mL at 1 h ([2]; BALB/c, mouse, total radioactivity, Urine, 1 h): 169 ± 95 %ID/g | excreta dose per gram or mL at 2 h ([2]; BALB/c, mouse, total radioactivity, Urine, 2 h): 57 ± 15 %ID/g | excreta dose per gram or mL at 4 h ([2]; BALB/c, mouse, total radioactivity, Urine, 4 h): 6.3 ± 4.53 %ID/g | excreta dose per gram or mL at 24 h ([2]; BALB/c, mouse, total radioactivity, Urine, 24 h): 0.2 ± 0.02 %ID/g | tissue uptake at 1 h ([2]; BALB/c, mouse, Kidney, 1 h): 4.16 ± 0.75 %ID/g | tissue uptake at 2 h ([2]; BALB/c, mouse, Kidney, 2 h): 4.05 ± 0.6 %ID/g | tissue uptake at 4 h ([2]; BALB/c, mouse, Kidney, 4 h): 3.21 ± 0.99 %ID/g | tissue uptake at 24 h ([2]; BALB/c, mouse, Kidney, 24 h): 1.21 ± 0.08 %ID/g | tissue uptake at 4 h ([2]; BALB/c, mouse, Liver, 4 h): 0.09 ± 0.02 %ID/g | tissue uptake at 24 h ([2]; BALB/c, mouse, Liver, 24 h): 0.04 %ID/g | tissue uptake at 1 h ([2]; BALB/c, mouse, Lungs, 1 h): 0.5 ± 0.23 %ID/g | tissue uptake at 2 h ([2]; BALB/c, mouse, Lungs, 2 h): 0.29 ± 0.08 %ID/g | tissue uptake at 4 h ([2]; BALB/c, mouse, Lungs, 4 h): 0.19 ± 0.04 %ID/g | tissue uptake at 24 h ([2]; BALB/c, mouse, Lungs, 24 h): 0.05 %ID/g | tissue uptake at 1 h ([2]; BALB/c, mouse, Spleen, 1 h): 0.08 ± 0.01 %ID/g | tissue uptake at 2 h ([2]; BALB/c, mouse, Spleen, 2 h): 0.09 ± 0.3 %ID/g | tissue uptake at 4 h ([2]; BALB/c, mouse, Spleen, 4 h): 0.05 ± 0.02 %ID/g | tissue uptake at 24 h ([2]; BALB/c, mouse, Spleen, 24 h): 0.03 ± 0.01 %ID/g | % ID/g ([2]; Muscle, 24 h): 0.00 ± 0.0 % ID/g | in vivo stability (activity excreted in urine, SE-HPLC with antibody) ([2]; urine from a mouse in a pretargeting experiment): appears to be the intact peptide | tissue uptake at 0.5 h ([3]; NCRNU nude, Kidney): 9.9 ± 6.1 %ID/g | tissue uptake at 0.5 h ([3]; NCRNU nude, Liver): 1.4 ± 0.3 %ID/g | tissue uptake at 1 h ([3]; NCRNU nude, Liver): 0.9 ± 0.2 %ID/g | tissue uptake at 3 h ([3]; NCRNU nude, Liver): 0.6 ± 0.1 %ID/g | tissue uptake at 0.5 h ([3]; NCRNU nude, Spleen): 1.2 ± 0.4 %ID/g | tissue uptake at 1 h ([3]; NCRNU nude, Spleen): 0.8 ± 0.2 %ID/g | tissue uptake at 3 h ([3]; NCRNU nude, Spleen): 0.5 ± 0.1 %ID/g | tissue uptake at 0.5 h ([3]; NCRNU nude, Tumor): 11.4 ± 4.8 %ID/g | tissue uptake at 1 h ([3]; NCRNU nude, Tumor): 14.3 ± 3.6 %ID/g | tissue uptake at 3 h ([3]; NCRNU nude, Tumor): 12.6 ± 5.2 %ID/g | tissue uptake at 24 h ([3]; NCRNU nude, Tumor): 8.7 ± 3.3 %ID/g | tissue uptake at 0.5 h ([3]; nude (Taconic NCRNU), Blood): 4.3 ± 1.2 %ID/g | tissue uptake at 1 h ([3]; nude (Taconic NCRNU), Blood): 3.5 ± 0.9 %ID/g | tissue uptake at 3 h ([3]; nude (Taconic NCRNU), Blood): 1.7 ± 0.4 %ID/g | tissue uptake at 24 h ([3]; nude (Taconic NCRNU), Blood): 0.6 ± 0.2 %ID/g | tissue uptake at 1 h ([3]; nude (Taconic NCRNU), Kidney): 4.6 ± 0.7 %ID/g | tissue uptake at 3 h ([3]; nude (Taconic NCRNU), Kidney): 2.4 ± 0.5 %ID/g | tissue uptake at 24 h ([3]; nude (Taconic NCRNU), Kidney): 1.2 ± 0.3 %ID/g | tissue uptake at 0.5 h ([3]; nude (Taconic NCRNU), Lungs): 4.2 ± 3.4 %ID/g | tissue uptake at 1 h ([3]; nude (Taconic NCRNU), Lungs): 3.6 ± 1.9 %ID/g | tissue uptake at 3 h ([3]; nude (Taconic NCRNU), Lungs): 1 ± 0.3 %ID/g | tissue uptake at 24 h ([3]; nude (Taconic NCRNU), Lungs): 0.3 ± 0.1 %ID/g | Origin (ITLC 24 hr Saturated NaCl) (Cys Challenge): 91.3% Origin | Solvent Front (ITLC 24 hr Saturated NaCl) (Cys Challenge): 7.4% Solvent | Peptide (HPLC) [5]: 98% Peptide | Void Vol (HPLC) [5]: 2% Void Vol | Peptide (HPLC) (Cys Challenge, 19.5 hr): 89% Peptide | Void Vol (HPLC) (Cys Challenge, 19.5 hr): 11% Void Vol | Origin (ITLC 24 hr Saturated NaCl) (Kit Room Temp.): 94% Origin | Solvent Front (ITLC 24 hr Saturated NaCl) (Kit Room Temp.): 5% Solvent Front | Peptide (HPLC) (Kit Room Temp., 3 hr): 99% Peptide | Void Vol (HPLC) (Kit Room Temp., 3 hr): 1% Void Vol | Peptide (HPLC) (Kit Room Temp., 21 hr): 95% Peptide | Void Vol (HPLC) (Kit Room Temp., 21 hr): 5% Void Vol | Peptide (HPLC) (Kit Room Temp., Initial Label): 99% Peptide | Void Vol (HPLC) (Kit Room Temp., Initial Label): 1% Void Vol | Origin (ITLC 24 hr Saturated NaCl) (Saline Dilution Room Temp.): 97% Origin | Solvent Front (ITLC 24 hr Saturated NaCl) (Saline Dilution Room Temp.): 2.3% Solvent | Peptide (HPLC) [6]: 96% Peptide | Void Vol (HPLC) [6]: 4% Void Vol | Peptide (HPLC) [7]: 99% Peptide | Void Vol (HPLC) [7]: 1% Void Vol

NC(=O)[C@H](CCCCNC(=O)CNC(=O)CCC(=O)NCCc1cnc[nH]1)NC(=O)[C@H](Cc1ccc(O)cc1)NC(=O)[C@H](CCCCNC(=O)CNC(=O)CCC(=O)NCCc1cnc[nH]1)NC(=O)[C@H](Cc1ccccc1)NC(=O)CN1CCN(CC(=O)O)CCN(CC(=O)O)CCN(CC(=O)O)CC1 [IMP 237, DOTA-Phe-Lys(HSG)-Tyr-Lys(HSG)-NH2] ({DOTA}-FK([Gly-Suc-NH(2-(imidazol-4-yl)ethyl)])YK([Gly-Suc-NH(2-(imidazol-4-yl)ethyl)])-NH2)
converted to the shorter retention time peak [4]: about 70%
